Measurements published in patent publication US20240166660A1, “KRAS G12C INHIBITORS” (BeiGene Switzerland GmbH, priority 2021, published 2024).

Target: KRAS (aa 1-169) G12C, C51S, C80L, C118S (Homo sapiens (Human), UniProt P01116, C118S/C51S/C80L/G12C)
Assay: Biochemical functional assay: SOS1-mediated nucleotide exchange of GDP-loaded KRAS G12C, binding to GST-cRaf RBD, FRET readout
Conditions: 3 hrs pre-incubation with compound at 24° C., SOS1, GTPyS, inhibition of nucleotide exchange
Procedure, shortened: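 GDP-loaded His-tagged KRAS construct preincubated with compound 3 h at 24° C in 25 mM HEPES pH7.5, 10 mM MgCl2, 0.01% Triton X-100; SOS1 (aa 564-1049), GTPγS and GST-cRaf RBD added for 3 h, then anti-His Tb cryptate/anti-GST XL665 for 3 h. HTRF 665/620 ratio; IC50 by four-parameter logistic fit.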

Sequence of KRAS (aa 1-169) G12C, C51S, C80L, C118S (P01116 other isoform, or with tags, fused parts or gaps G12C/C51S/C80L/C118S): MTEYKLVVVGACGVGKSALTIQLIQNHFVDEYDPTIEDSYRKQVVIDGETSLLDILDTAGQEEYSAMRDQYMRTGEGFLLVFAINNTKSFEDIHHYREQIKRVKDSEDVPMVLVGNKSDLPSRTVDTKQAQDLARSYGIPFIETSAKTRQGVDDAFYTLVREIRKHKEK

For `C=C(F)C(=O)N1CCN(c2nc(OC[C@@H]3CCCN3C)nc3cc(-c4cccc5ccc(Cl)cc45)c4c(c23)OCCC4)C[C@@H]1CC#N` [Compound B70, 2-((S)-4-(5-(7-chloronaphthalen-1-yl)-8-(((S)-1-methylpyrrolidin-2-yl)methoxy)-3,4-dihydro-2H-pyrano[2,3-f]quinazolin-10-yl)-1-(2-fluoroacryloyl)piperazin-2-yl)acetonitrile], the IC50 was 35 nM.

`C=C(F)C(=O)N1CCN(c2nc(O[C@@H]3CCN(C)C3)nc3cc(-c4cccc5cccc(Cl)c45)c4c(c23)OCCC4)C[C@@H]1CC#N` [Compound B71, 2-((S)-4-(5-(8-chloronaphthalen-1-yl)-8-(((R)-1-methylpyrrolidin-3-yl)oxy)-3,4-dihydro-2H-pyrano[2,3-f]quinazolin-10-yl)-1-(2-fluoroacryloyl)piperazin-2-yl)acetonitrile] was tested, and the IC50 was 304 nM.

In the case of `C=C(F)C(=O)N1CCN(c2nc(OC[C@@H]3COCCN3C)nc3cc(-c4cccc5cccc(Cl)c45)c4c(c23)OCCC4)C[C@@H]1CC#N` [Compound B72, 2-((S)-4-(5-(8-chloronaphthalen-1-yl)-8-(((S)-4-methylmorpholin-3-yl)methoxy)-3,4-dihydro-2H-pyrano[2,3-f]quinazolin-10-yl)-1-(2-fluoroacryloyl)piperazin-2-yl)acetonitrile], the IC50 is reported as 194 nM.

Molecule `C=C(F)C(=O)N1CCN(c2nc(OC[C@@H]3C[C@H]4C[C@H]4N3C)nc3cc(-c4cccc5cccc(Cl)c45)c4c(c23)OCCC4)C[C@@H]1CC#N` [Compound B73, 2-((S)-4-(5-(8-chloronaphthalen-1-yl)-8-(((1R,3S,5R)-2-methyl-2-azabicyclo[3.1.0]hexan-3-yl)methoxy)-3,4-dihydro-2H-pyrano[2,3-f]quinazolin-10-yl)-1-(2-fluoroacryloyl)piperazin-2-yl)acetonitrile] has an IC50 of 50 nM.

`C=C(F)C(=O)N1CCN(c2nc(N3CCCC(N(C)C)C3)nc3cc(-c4cccc5cccc(Cl)c45)c4c(c23)OCCC4)C[C@@H]1CC#N` (stereo partly drawn) [Compound B74, 2-((2S)-4-(5-(8-chloronaphthalen-1-yl)-8-(3-(dimethylamino)piperidin-1-yl)-3,4-dihydro-2H-pyrano[2,3-f]quinazolin-10-yl)-1-(2-fluoroacryloyl)piperazin-2-yl)acetonitrile] showed an IC50 of 837 nM.

`C=C(F)C(=O)N1CCN(c2nc(OC[C@@H]3CCN(C)C3)nc3cc(-c4cccc5cccc(Cl)c45)c4c(c23)OCCC4)C[C@@H]1CC#N` [Compound B75, 2-((S)-4-(5-(8-chloronaphthalen-1-yl)-8-(((R)-1-methylpyrrolidin-3-yl)methoxy)-3,4-dihydro-2H-pyrano[2,3-f]quinazolin-10-yl)-1-(2-fluoroacryloyl)piperazin-2-yl)acetonitrile] showed an IC50 of 44 nM.

With `C=CC(=O)N1CCN(c2nc(OC[C@@H]3CCCN3C)nc3cc(-c4c(C)cccc4Cl)c4ccoc4c23)CC1` [Compound B76, 1-(4-(4-(2-chloro-6-methylphenyl)-7-(((S)-1-methylpyrrolidin-2-yl)methoxy)furo[2,3-f]quinazolin-9-yl)piperazin-1-yl)prop-2-en-1-one] the IC50 was 279 nM.

With `C=C(F)C(=O)N1CCN(c2nc(OC[C@@H]3CCCN3C)nc3cc(-c4ccc(C)cc4C(F)(F)F)c4ccoc4c23)C[C@@H]1CC#N` [Compound B77, 2-((S)-1-(2-fluoroacryloyl)-4-(4-(4-methyl-2-(trifluoromethyl)phenyl)-7-(((S)-1-methylpyrrolidin-2-yl)methoxy)furo[2,3-f]quinazolin-9-yl)piperazin-2-yl)acetonitrile] the IC50 was 535 nM.

With `C=C(F)C(=O)N1CCN(c2nc(OC[C@@H]3CCCN3C)nc3cc(-c4cccc5c4CCC5)c4c(c23)OCCC4)C[C@@H]1CC#N` [Compound B78, 2-((S)-4-(5-(2,3-dihydro-1H-inden-4-yl)-8-(((S)-1-methylpyrrolidin-2-yl)methoxy)-3,4-dihydro-2H-pyrano[2,3-f]quinazolin-10-yl)-1-(2-fluoroacryloyl)piperazin-2-yl)acetonitrile] the IC50 was 12 nM.

`C=C(F)C(=O)N1CCN(c2nc(N3CC(N(C)C)C3)nc3cc(-c4c(Cl)c(C)cc5[nH]ncc45)c4ccoc4c23)C[C@@H]1CC#N` [Compound B79, 2-((2S)-4-(4-(5-chloro-6-methyl-1H-indazol-4-yl)-7-(3-(dimethylamino)azetidin-1-yl)furo[2,3-f]quinazolin-9-yl)-1-(2-fluoroacryloyl)piperazin-2-yl)acetonitrile] showed an IC50 of 59 nM.

Work on `C=C(F)C(=O)N1CCN(c2nc(N3CC(CC#N)(N(C)C)C3)nc3cc(-c4cccc5cccc(Cl)c45)c4ccoc4c23)C[C@@H]1CC#N` [Compound B80, (S)-2-(4-(4-(8-chloronaphthalen-1-yl)-7-(3-(cyanomethyl)-3-(dimethylamino)azetidin-1-yl)furo[2,3-f]quinazolin-9-yl)-1-(2-fluoroacryloyl)piperazin-2-yl)acetonitrile] yielded an IC50 of 222 nM.

`C=C(F)C(=O)N1CCN(c2nc(OC[C@@H]3CCCN3C)nc3cc(-c4cccc5c4CCCC5)c4c(c23)OCCC4)C[C@@H]1CC#N` [Compound B81, 2-((S)-1-(2-fluoroacryloyl)-4-(8-(((S)-1-methylpyrrolidin-2-yl)methoxy)-5-(5,6,7,8-tetrahydronaphthalen-1-yl)-3,4-dihydro-2H-pyrano[2,3-f]quinazolin-10-yl)piperazin-2-yl)acetonitrile] gave an IC50 of 48 nM.

`C=CC(=O)N1CCN(c2nc(OC[C@@H]3CCCN3C)nc3cc(-c4cccc5cccc(Cl)c45)c4c(c23)OCCC4)C[C@@H]1CC#N` [Compound B82, 2-((S)-1-acryloyl-4-(5-(8-chloronaphthalen-1-yl)-8-(((S)-1-methylpyrrolidin-2-yl)methoxy)-3,4-dihydro-2H-pyrano[2,3-f]quinazolin-10-yl)piperazin-2-yl)acetonitrile] showed an IC50 of 6.2 nM.

`C=CC(=O)N1CCN(c2nc(N3CC(N(C)C)C3)nc3cc(-c4ccccc4C(F)(F)F)c4ccoc4c23)CC1` [Compound B83, 1-(4-(7-(3-(dimethylamino)azetidin-1-yl)-4-(2-(trifluoromethyl)phenyl)furo[2,3-f]quinazolin-9-yl)piperazin-1-yl)prop-2-en-1-one] gave an IC50 of 1700 nM.

`C=C(F)C(=O)N1CCN(c2nc(OC3CCCN(C)C3)nc3cc(-c4cccc5cccc(Cl)c45)c4c(c23)OCCC4)C[C@@H]1CC#N` (stereo partly drawn) [Compound B84, 2-((2S)-4-(5-(8-chloronaphthalen-1-yl)-8-((1-methylpiperidin-3-yl)oxy)-3,4-dihydro-2H-pyrano[2,3-f]quinazolin-10-yl)-1-(2-fluoroacryloyl)piperazin-2-yl)acetonitrile] was tested, and the IC50 was 483 nM.

`C=C(F)C(=O)N1CCN(c2nc(OC(C)CN(C)C)nc3cc(-c4cccc5cccc(Cl)c45)c4c(c23)OCCC4)C[C@@H]1CC#N` (stereo partly drawn) [Compound B85, 2-((2S)-4-(5-(8-chloronaphthalen-1-yl)-8-((1-(dimethylamino)propan-2-yl)oxy)-3,4-dihydro-2H-pyrano[2,3-f]quinazolin-10-yl)-1-(2-fluoroacryloyl)piperazin-2-yl)acetonitrile] gave an IC50 of 89 nM.

In the case of `C=C(F)C(=O)N1CCN(c2nc(N3CC(COC)(N(C)C)C3)nc3cc(-c4cccc5cccc(Cl)c45)c4c(c23)OCCC4)C[C@@H]1CC#N` [Compound B86, (S)-2-(4-(5-(8-chloronaphthalen-1-yl)-8-(3-(dimethylamino)-3-(methoxymethyl)azetidin-1-yl)-3,4-dihydro-2H-pyrano[2,3-f]quinazolin-10-yl)-1-(2-fluoroacryloyl)piperazin-2-yl)acetonitrile], the IC50 is reported as 19 nM.

With `C=C(F)C(=O)N1CCN(c2nc(OC[C@@H]3CCCN3C)nc3cc(-c4cccc(C(F)(F)F)c4)c4ccoc4c23)C[C@@H]1CC#N` [Compound B87, 2-((S)-1-(2-fluoroacryloyl)-4-(7-(((S)-1-methylpyrrolidin-2-yl)methoxy)-4-(3-(trifluoromethyl)phenyl)furo[2,3-f]quinazolin-9-yl)piperazin-2-yl)acetonitrile] the IC50 was 1520 nM.

Work on `C=C(F)C(=O)N1CCN(c2nc(N3CC(CF)(N(C)C)C3)nc3cc(-c4cccc5cccc(Cl)c45)c4c(c23)OCCC4)C[C@@H]1CC#N` [Compound B88, (S)-2-(4-(5-(8-chloronaphthalen-1-yl)-8-(3-(dimethylamino)-3-(fluoromethyl)azetidin-1-yl)-3,4-dihydro-2H-pyrano[2,3-f]quinazolin-10-yl)-1-(2-fluoroacryloyl)piperazin-2-yl)acetonitrile] yielded an IC50 of 92 nM.

Work on `C=C(F)C(=O)N1CCN(c2nc(OC[C@@H]3CCCN3C)nc3cc(-c4ccc(C(F)(F)F)cc4)c4ccoc4c23)C[C@@H]1CC#N` [Compound B89, 2-((S)-1-(2-fluoroacryloyl)-4-(7-(((S)-1-methylpyrrolidin-2-yl)methoxy)-4-(4-(trifluoromethyl)phenyl)furo[2,3-f]quinazolin-9-yl)piperazin-2-yl)acetonitrile] yielded an IC50 of 691 nM.

With `C=C(F)C(=O)N1CCN(c2nc(N3CC(CC#N)(N(C)C)C3)nc3cc(-c4cccc5cccc(Cl)c45)c4c(c23)OCCC4)C[C@@H]1CC#N` [Compound B90, (S)-2-(1-(5-(8-chloronaphthalen-1-yl)-10-(3-(cyanomethyl)-4-(2-fluoroacryloyl)piperazin-1-yl)-3,4-dihydro-2H-pyrano[2,3-f]quinazolin-8-yl)-3-(dimethylamino)azetidin-3-yl)acetonitrile] the IC50 was 37 nM.

In the case of `C=C(F)C(=O)N1CCN(c2nc(OC[C@@H]3CCCN3C)nc3cc(-c4ccc(Cl)c5ccccc45)c4c(c23)OCCC4)C[C@@H]1CC#N` [Compound B98, 2-((S)-4-(5-(4-chloronaphthalen-1-yl)-8-(((S)-1-methylpyrrolidin-2-yl)methoxy)-3,4-dihydro-2H-pyrano[2,3-f]quinazolin-10-yl)-1-(2-fluoroacryloyl)piperazin-2-yl)acetonitrile], the IC50 is reported as 462 nM.
